Molecular target: T1, T. maritima encapsulin (TmEnc) (Thermotoga maritima, UniProt Q9WZP2)
T1 construct: gene enc; codon-optimized gene in pET-11a, E. coli Rosetta2 (DE3); no tag mentioned; icosahedral shell without cargo protein; flavin site formed by three subunits
T1 sequence (Q9WZP2 1-265): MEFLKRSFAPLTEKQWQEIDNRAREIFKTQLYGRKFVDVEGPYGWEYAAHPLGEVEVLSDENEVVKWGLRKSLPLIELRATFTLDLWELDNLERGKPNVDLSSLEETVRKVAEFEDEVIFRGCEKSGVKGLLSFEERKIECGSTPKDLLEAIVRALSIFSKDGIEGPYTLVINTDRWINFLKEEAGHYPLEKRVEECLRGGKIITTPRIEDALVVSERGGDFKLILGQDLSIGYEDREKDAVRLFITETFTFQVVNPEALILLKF
Test: cryo-EM structure ([…] Å)
Format: binding
Conditions: co-purified from E. coli lysate through 80°C step; exact flavin identity ambiguous, FMN modelled; exterior site near threefold axis, stacks on Trp87; Tris pH 8.0, 150 mM NaCl

Cc1cc2nc3c(=O)[nH]c(=O)nc-3n(C[C@H](O)[C@H](O)[C@H](O)COP(=O)(O)O)c2cc1C [flavin mononucleotide]
cryo-EM structure (2.0 Å): flavin mononucleotide (FMN) seems to be consistent with the density and has been modeled

From publication PMC8086157, “Cryo-EM structure of a thermostable bacterial nanocompartment” (IUCrJ, 2021)
